Structures can show the parent of a compound that is named as a salt.
Legend:
[1] = molecular target: T1, recombinant H1 receptor (human) (Homo sapiens, UniProt P35367); assay: H1 competition binding assay ([3H]-Pyrilamine, SPA)
T1 construct: expressed in transfected cells; host or cells: HEK-293 (membranes)
Description: [^3H]-Pyrilamine binding experiments are carried out in SPA (scintillation proximity assay) 96-well format. Membranes used in this assay are prepared from HEK-293 cells stably expressing recombinant H1 receptor (human). The incubation is initiated by the addition of a mixture of WGA PVT SPA beads (1 mg/well, Perkin Elmer (MA, USA) RPNQ0001) and 3 μg membranes to assay buffer (67 mM Tris; pH 7.6) containing 3.5 nM [^3H]-Pyrilamine and varying concentrations of the test compound (10 point concentration response curves). Non-specific binding is determined in the presence of 10 μM Triprolidine. Samples are incubated for 4 hr. at room temperature (22° C.) and then read in a Microbeta Trilux.
(§1) Curves are evaluated using a 4-parameter logistic nonlinear equation to obtain the concentration of competitor causing 50% inhibition of radioligand binding (IC50). Equilibrium dissociation constants (Ki) are calculated according to the equation Ki=IC50/(1+L/Kd), where L equals the concentration of radioligand used in the experiment and Kd equals the equilibrium dissociation constant of the radioligand for the receptor, determined from standard saturation analysis or homologous competition experiments. Reported values for Ki, where n values are indicated, are shown as geometric mean±the standard error of the mean (SEM), with the number of replicate determinations indicated by n. […]

[2] = molecular target: T2, recombinant 5-HT2A receptor (human) (Homo sapiens, UniProt P28223); assay: 5-HT2A competition binding assay ([3H]-Ketanserin, SPA)
T2 construct: expressed in transfected cells; host or cells: AV-12 (membranes)
Description: [^3H]-Ketanserin binding experiments are carried out in SPA 96-well format. Membranes used in this assay are prepared from AV-12 cells stably expressing recombinant 5-HT2A receptor (human). The incubation is initiated by the addition of a mixture of WGA YSi SPA beads (1 mg/well, Perkin Elmer (MA, USA), RPNQ0011) and 2 μg membranes to assay buffer (67 mM Tris, 0.5 mM EDTA; pH 7.6) containing 3.1 nM [^3H]-Ketanserin and varying concentrations of the test compound (10 point concentration response curves). Non-specific binding is determined in the presence of 20 μM 1-(1-Naphthyl) piperazine. Samples are incubated for 4 hr. at room temperature (22° C.) and then read in a Microbeta Trilux.
as §1

5-HT2B [3] = molecular target: T3, 5-HT2B (Homo sapiens, UniProt P41595); assay: 5-HT2B binding
Text: (§2) Further, the compounds of the invention may be tested in binding assays and functional activity assays by well known methods for other physiologically important receptors such as, but not limited to, the hERO channel, other serotonin receptors (specifically 5-HT1B, 5-HT1D, receptors, lack of agonist activity at 5-HT2B receptors, 5-HT2C, 5-HT5, 5-HT6, and 5-HT7 receptors), dopaminergic receptors (specifically D1, D2, and D3), GABAA receptors, adrenergic receptors and monoamine transporters.

5-HT2B [4] = molecular target: T3, 5-HT2B; assay: 5-HT2B agonist functional activity; type: biochemical
Text: as §2

5-HT2B [5] = molecular target: T3, 5-HT2B; assay: 5-HT2B antagonist functional activity; type: biochemical
Text: as §2

native GABAA receptors = assay: GABAA antagonism using native receptors in primary neuronal cultures (FLIPR); type: cell-based; details: against GABA at 10 μM, rat cortical embryonic neurons
Description: Activity of compounds on native GABAA receptors is evaluated by monitoring calcium fluxes using a 96 well format FLIPR® system (Fluorometric Imaging Plate Reader (FLIPR®, Molecular Devices). Briefly, cortical embryonic neurons are dissociated from E18 rat embryos and plated at optimum density into black-walled, transparent bottom poly-D-lysine coated 96-well FLIPR® plates. After loading the cells with a calcium sensitive dye (Fluo4-AM, Molecular Devices), the cells are bathed in a solution containing low chloride (chloride replaced by gluconate). Under these conditions activation of GABAA receptors causes an efflux of chloride ions (in the direction of the chemical gradient), which results in membrane depolarization and consequently activation of voltage gated calcium channels (VGCCs). Calcium influx through VGCCs is recorded and analysed offline using the FLIPR® system. For a pharmacological validation of the assay, concentration response curves (CRC) are recorded for the standard agonist (GABA) and standard antagonist (Gabazine). […]
The antagonist effects of compounds are quantified using 10-point dose response curves by comparing the peak fluorescent responses to the agonist GABA in the presence and absence of compound. […] Antagonist effects are calculated as a percent of the assay window. […]

Adrenergic alpha2A = Adrenergic alpha2A (Homo sapiens, UniProt P08913); assay: Adrenergic alpha2A binding
Text: as §2

Adrenergic alpha2B = Adrenergic alpha2B (Homo sapiens, UniProt P18089); assay: Adrenergic alpha2B binding
Text: as §2

5-HT2A receptor = molecular target: T4, 5-HT2A receptor (Mus musculus, UniProt P35363); assay: Inhibition of DOI induced headshake activity; type: in vivo; details: 10 mg/kg PO, mice, DOI 3 mg/kg, read-out: inhibition of DOI induced headshake response
T4 construct: from tissue; host or cells: living C57BL/6J mice
Description: (see for example Bartoszyk G D, van Amsterdam C, Böttcher H, Seyfried C A. EMD 281014, a new selective serotonin 5-HT2A receptor antagonist. Eur J Pharmacol. 2003 473: 229-230.) Briefly, male C57BL/6J mice (20-25 g, Charles River) are housed in standard housing conditions (32 mice in a large IVC cage, 07.00 to 19.00 light phase, constant temperature (19-23° C.) and humidity (50%+/−10), ad lib food and water). Mice received either vehicle (0.25% Methyl cellulose), DOI (3 mg/kg in saline) or test compound at 10 mg/kg PO plus DOI (3 mg/kg in saline). Test compounds are individually evaluated in groups of four per experiment with n=4 for each compound, together with vehicle and DOI+vehicle (n=8). After a test compound pre-treatment time of 60 min. the mice receive either vehicle (saline) or 3 mg/kg DOI dosed subcutaneously, and are then placed into clear perspex observation chambers. […] The data is analyzed using an ANOVA and post-hoc Dunnet's Test. The compound of example 2 is tested essentially as described and is found to inhibit the DOI induced headshake response at 100% at 10 mg/kg.

Rats = assay: Rat sleep studies, coadministration with citalopram; type: in vivo; details: coadministered with citalopram

T3 sequence (P41595 whole entry, species assumed): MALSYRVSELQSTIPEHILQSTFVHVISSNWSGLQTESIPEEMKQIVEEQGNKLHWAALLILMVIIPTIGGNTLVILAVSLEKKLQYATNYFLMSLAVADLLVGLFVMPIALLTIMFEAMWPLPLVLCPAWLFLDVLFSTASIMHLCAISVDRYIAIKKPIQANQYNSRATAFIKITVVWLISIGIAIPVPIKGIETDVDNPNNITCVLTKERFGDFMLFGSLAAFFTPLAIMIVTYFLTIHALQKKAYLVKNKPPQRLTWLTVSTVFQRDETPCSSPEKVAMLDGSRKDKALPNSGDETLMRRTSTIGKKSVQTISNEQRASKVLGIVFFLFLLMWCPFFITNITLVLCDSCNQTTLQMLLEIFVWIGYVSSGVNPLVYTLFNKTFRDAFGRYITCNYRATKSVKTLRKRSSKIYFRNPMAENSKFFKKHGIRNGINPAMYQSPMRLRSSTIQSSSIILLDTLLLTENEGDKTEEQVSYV
Sequence of Adrenergic alpha2A (P08913 whole entry): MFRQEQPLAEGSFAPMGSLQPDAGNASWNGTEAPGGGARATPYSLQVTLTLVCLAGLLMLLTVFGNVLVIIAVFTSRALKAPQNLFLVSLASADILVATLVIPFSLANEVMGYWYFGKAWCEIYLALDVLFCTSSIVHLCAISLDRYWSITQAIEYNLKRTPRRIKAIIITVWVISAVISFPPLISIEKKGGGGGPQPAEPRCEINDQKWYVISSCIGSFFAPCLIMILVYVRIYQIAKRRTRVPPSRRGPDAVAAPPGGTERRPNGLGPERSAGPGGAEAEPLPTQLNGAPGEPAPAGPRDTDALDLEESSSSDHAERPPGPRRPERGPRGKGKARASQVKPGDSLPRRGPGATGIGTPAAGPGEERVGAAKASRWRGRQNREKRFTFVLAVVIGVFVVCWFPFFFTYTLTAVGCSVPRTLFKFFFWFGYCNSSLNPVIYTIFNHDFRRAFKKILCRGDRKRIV
T4 sequence (P35363 whole entry): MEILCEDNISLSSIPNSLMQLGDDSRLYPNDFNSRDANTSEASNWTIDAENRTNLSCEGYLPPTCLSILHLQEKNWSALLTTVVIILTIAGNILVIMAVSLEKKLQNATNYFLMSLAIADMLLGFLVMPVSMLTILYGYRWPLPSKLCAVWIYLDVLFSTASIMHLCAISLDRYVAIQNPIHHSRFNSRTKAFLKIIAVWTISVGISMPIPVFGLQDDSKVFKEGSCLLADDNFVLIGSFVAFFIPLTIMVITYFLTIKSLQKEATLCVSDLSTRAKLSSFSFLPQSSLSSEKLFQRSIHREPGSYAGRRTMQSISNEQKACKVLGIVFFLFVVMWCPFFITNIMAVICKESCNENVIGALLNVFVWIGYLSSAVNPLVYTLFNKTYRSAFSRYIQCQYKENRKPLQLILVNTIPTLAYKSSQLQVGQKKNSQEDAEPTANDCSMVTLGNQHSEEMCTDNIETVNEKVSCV
Sequence of Adrenergic alpha2B (P18089 whole entry): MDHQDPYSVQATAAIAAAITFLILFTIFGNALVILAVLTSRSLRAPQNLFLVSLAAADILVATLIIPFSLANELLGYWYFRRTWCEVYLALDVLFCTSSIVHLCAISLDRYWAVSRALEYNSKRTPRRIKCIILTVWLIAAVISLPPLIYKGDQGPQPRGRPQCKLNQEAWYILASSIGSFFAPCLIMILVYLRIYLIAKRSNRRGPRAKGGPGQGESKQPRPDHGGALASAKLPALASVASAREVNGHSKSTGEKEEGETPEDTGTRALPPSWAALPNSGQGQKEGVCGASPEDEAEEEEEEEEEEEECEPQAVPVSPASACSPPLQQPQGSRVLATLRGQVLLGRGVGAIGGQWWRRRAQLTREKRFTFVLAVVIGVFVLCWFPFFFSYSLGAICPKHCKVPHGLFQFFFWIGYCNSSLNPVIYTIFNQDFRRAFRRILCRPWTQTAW
T2 sequence (P28223 whole entry): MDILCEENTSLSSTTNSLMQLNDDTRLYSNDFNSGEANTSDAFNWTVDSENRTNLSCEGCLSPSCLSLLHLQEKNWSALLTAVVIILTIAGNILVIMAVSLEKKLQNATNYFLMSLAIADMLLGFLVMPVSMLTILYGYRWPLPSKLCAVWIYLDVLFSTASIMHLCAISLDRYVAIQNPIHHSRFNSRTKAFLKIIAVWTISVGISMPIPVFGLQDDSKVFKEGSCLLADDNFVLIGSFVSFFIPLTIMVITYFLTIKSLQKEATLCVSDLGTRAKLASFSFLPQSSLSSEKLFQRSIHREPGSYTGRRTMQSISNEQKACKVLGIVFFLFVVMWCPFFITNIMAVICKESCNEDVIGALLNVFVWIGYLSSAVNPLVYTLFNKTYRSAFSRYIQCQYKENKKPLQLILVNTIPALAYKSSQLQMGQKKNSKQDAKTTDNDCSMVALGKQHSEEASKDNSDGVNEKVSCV
T1 sequence (P35367 whole entry): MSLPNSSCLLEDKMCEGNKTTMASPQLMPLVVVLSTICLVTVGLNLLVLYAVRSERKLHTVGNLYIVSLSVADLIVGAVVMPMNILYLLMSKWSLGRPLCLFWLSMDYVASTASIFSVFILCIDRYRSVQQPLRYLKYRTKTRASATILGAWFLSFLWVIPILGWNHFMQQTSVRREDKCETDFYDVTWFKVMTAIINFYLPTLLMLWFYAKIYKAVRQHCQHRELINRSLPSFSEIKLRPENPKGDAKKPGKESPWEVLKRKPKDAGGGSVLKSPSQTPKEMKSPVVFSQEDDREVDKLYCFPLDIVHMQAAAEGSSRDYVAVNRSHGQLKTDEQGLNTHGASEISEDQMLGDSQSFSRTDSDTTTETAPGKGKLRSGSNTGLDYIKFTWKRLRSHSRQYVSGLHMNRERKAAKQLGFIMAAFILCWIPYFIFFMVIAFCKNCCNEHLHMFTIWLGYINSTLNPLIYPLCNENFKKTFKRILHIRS

Cc1ccc2c(c1)Oc1sc(C)cc1C(N1CCN(CC(C)(C)C(=O)O)CC1)=N2 [Example 2, 3-[4-(2,8-Dimethylthieno[2,3-b][1,5]benzoxazepin-4-yl)piperazin-1-yl]-2,2-dimethyl-propanoic acid dihydrochloride]
Ki [1]: 131 nM | Ki [2]: 11.3 nM | Ki (5-HT2B [3]): 95.8 nM | EC50 (5-HT2B [4]): > 10000 nM | Kb (5-HT2B [5]): 45 nM | IC50 (native GABAA receptors): 98000 nM | Ki (Adrenergic alpha2A): > 9020 nM | Ki (Adrenergic alpha2B): 3710 nM | inhibition at 10 mg/kg (5-HT2A receptor): 100% | NREM sleep on coadministration with citalopram (Rats): significantly increase NREM sleep at significantly lower doses

Reference: patent US9512140B2, “(Thieno[2,3-b][1,5]benzoxazepin-4-yl)piperazin-1-yl compounds as dual activity H1 inverse agonists/5-HT2A antagonists” (priority 2011, dated 2016)
